Test results from US20250002493A1, “PYRIDONE COMPOUND AND PREPARATION METHOD THEREFOR, PHARMACEUTICAL COMPOSITION AND USE” (NANJING CHINA-AUSTRALIA INSTITUTE OF TRANSLATIONAL MEDICINE …, priority 2022, published 2025).

Assays:
[1] = tested on: SK-OV-3 human ovarian cancer cells; test: WST-8 cell proliferation assay, SK-OV-3; type: cell-based; conditions: 72 hours, read-out: SKOV-3 IC50
Method: (§1) The effects of the compounds provided by the present invention on the proliferation of different cancer cell lines were tested using the WST-8 assay kit. This method is based on the reduction of WST-8 by dehydrogenase in live cells to form a highly water-soluble yellow Formazan dye. Cells were seeded in a 96-well plate and cultured with the test compounds at 37° C. under 5% CO2 for 72 hours. Afterwards, 10% (v/v) WST-8 was added, and the samples were incubated for an additional 2-3 hours. The absorbance of the samples was measured at 450 nm using a Tecan microplate reader, and the concentration of the compound that inhibited 50% of cell proliferation (IC50, nM) was calculated. The activity of the compounds provided by the present invention was determined in three cancer cell lines: MDA-MB-231 human breast cancer cells, SK-OV-3 human ovarian cancer cells, and PANC1 human pancreatic cancer.

[2] = target: BIR3 domain of human XIAP (residues 238-358) (Homo sapiens (Human), UniProt P98170); test: Fluorescence polarization competitive binding to XIAP BIR3; conditions: FP, peptide probe 5 nM, XIAP BIR3 30 nM, 1 hour room temperature
Chain of BIR3 domain of human XIAP (residues 238-358) (P98170 238-358): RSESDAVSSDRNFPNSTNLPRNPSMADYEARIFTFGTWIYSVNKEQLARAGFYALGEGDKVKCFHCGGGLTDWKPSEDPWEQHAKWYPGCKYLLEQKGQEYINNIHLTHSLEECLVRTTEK
Method: (§2) The binding affinity of the compounds provided by the present invention to IAP proteins was determined using a fluorescence polarization method (Nikolovska-Colesak et al, Anal. Biochem. 2004, 332:261-73). The recombinant BIR3 domains of human XIAP (residues 238-358), human cIAP1 (residues 255-364) and human cIAP2 (residues 236-342) fusing GST-tags were expressed in E. coli and purified using glutathione agarose 4B affinity chromatography and gel filtration chromatography. A 5-Fam fluorescently modified peptide probe (AbuRPFK(5-Fam)-NH2) was used to test the competitive binding ability of the compounds to the BIR3 domains of XIAP, cIAP1 and cIAP2. The peptide probe (5 nM), XIAP BIR3 (30 nM) or cIAP1 BIR3 (5 nM) or cIAP2 BIR3 (10 nM), and serial diluted compounds were mixed in a test buffer (100 mM potassium phosphate pH 7.5, 100 μg/ml bovine gamma globulin, 0.02% sodium azide, and 1 mM DTT). After incubating the samples at room temperature for 1 hour, the fluorescence polarization values were read using a Tecan microplate reader (FP excitation wavelength 485 nm, […] wavelength 530 nm). The IC50 value was obtained by fitting the curve using nonlinear least square regression with the Graphpad Prism software. The inhibition constant Ki, values were calculated using the Equation Ki, [I]50/([L]50/Kd+[P]0/Kd+1).

[3] = tested on: MDA-MB-231 cancer cells; test: Inhibitor-induced apoptosis, flow cytometry with Annexin V and propidium iodide; type: cell-based, human; conditions: 3 hours
Method: After treating the cells with 10 nM and 100 nM concentrations of the compounds for 3 hours, the induction of apoptosis was analyzed using flow cytometry with Annexin V and propidium iodide staining.

[4] = tested on: PANC1 human pancreatic cancer; test: WST-8 cell proliferation assay, PANC1; type: cell-based; conditions: PANC-1, 72 hours
Method: as §1

[5] = target: BIR3 domain of human cIAP2 (residues 236-342) (Homo sapiens (Human), UniProt Q13489); test: Fluorescence polarization competitive binding to cIAP2 BIR3; conditions: FP, peptide probe 5 nM, cIAP2 BIR3 10 nM, 1 hour room temperature
Chain of BIR3 domain of human cIAP2 (residues 236-342) (Q13489 236-342): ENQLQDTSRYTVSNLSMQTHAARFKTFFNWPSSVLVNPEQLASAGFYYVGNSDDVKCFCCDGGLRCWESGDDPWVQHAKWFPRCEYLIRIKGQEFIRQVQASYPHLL
Method: as §2

[6] = target: BIR3 domain of human cIAP1 (residues 255-364) (Homo sapiens (Human), UniProt Q13490); test: Fluorescence polarization competitive binding to cIAP1 BIR3; conditions: FP, peptide probe 5 nM, cIAP1 BIR3 5 nM, 1 hour room temperature
Chain of BIR3 domain of human cIAP1 (residues 255-364) (Q13490 255-364): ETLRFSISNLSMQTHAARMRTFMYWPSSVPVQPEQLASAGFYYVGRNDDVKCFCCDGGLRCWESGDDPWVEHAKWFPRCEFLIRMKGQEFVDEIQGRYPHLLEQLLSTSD
Method: as §2

[7] = tested on: MDA-MB-231 human breast cancer cells; test: WST-8 cell proliferation assay, MDA-MB-231; type: cell-based; conditions: 72 hours
Method: as §1

| IC50 [1] | Ki [2] | IC50 [4] | Ki [5] | Ki [6] | IC50 [7] | Compound | Proportion of apoptotic cells ([3]; Drug concentration 10 nM) | Proportion of apoptotic cells ([3]; Drug concentration 100 nM) |
| --- | --- | --- | --- | --- | --- | --- | --- | --- |
| 19 nM | 208 nM | 96 nM | 5.7 nM | 1.9 nM | 18 nM | CN[C@@H](C)C(=O)N[C@H](C(=O)N1CC(C)(C)c2cc(=O)n(Cc3ccc(F)cc3F)cc21)C1CCCCC1 [Compound I-2-27] | 31% | 46% |
| 23 nM | 185 nM | 124 nM | 6.7 nM | 1.9 nM | 20 nM | [2H]C([2H])([2H])N[C@@H](C)C(=O)N[C@H](C(=O)N1CC(C)(C)c2cc(=O)n(Cc3ccc(F)cc3F)cc21)C(C)(C)C [Compound I-2-28] | 29% | 47% |
| 32 nM | 568 nM | 165 nM | 12.7 nM | 3 nM | 29 nM | [2H]C([2H])([2H])N[C@@H](C)C(=O)N[C@H](C(=O)N1CC(C)(C)c2cc(=O)n(Cc3ccc(F)cc3)cc21)C(C)(C)C [Compound I-2-29] | 20% | 42% |
| 29 nM | 343 nM | 189 nM | 10 nM | 2.2 nM | 28 nM | CN[C@@H](C)C(=O)N[C@H](C(=O)N1CC(C)(C)c2cc(=O)n(Cc3ccc(F)cc3O)cc21)C(C)(C)C [Compound I-2-32] | 21% | 43% |
| 27 nM | 288 nM | 192 nM | 7.9 nM | 1.9 nM | 24 nM | CN[C@@H](C)C(=O)N[C@H](C(=O)N1CC(C)(C)c2cc(=O)n(Cc3ccc(F)cc3)cc21)C(C)(C)C [Compound I-2-33] | 23% | 45% |
| 4 nM | 30.7 nM | 58 nM | 2.6 nM | 1.2 nM | 5 nM | CN[C@@H](C)C(=O)N[C@H](C(=O)N1CCc2c1cc(Cc1ccc(F)cc1)c(=O)n2C)C1CCCCC1 [Compound I-3-1, (S)-N-((S)-1-cyclohexyl-2-(6-(4-fluorobenzyl)-4-methyl-5-oxo-2,3,4,5-tetrahydro-1H-pyrrolo[3,2-b]pyridine-1-yl)-2-oxyethyl)-2-(methylamino)propanamide] | 36% | 48% |
| 2 nM | 18.4 nM | 43 nM | 2.2 nM | 1.2 nM | 2 nM | CN[C@@H](C)C(=O)N[C@H](C(=O)N1CCc2c1cc(Cc1ccc(F)cc1)c(=O)n2C)C(C)(C)C [Compound I-3-2] | 38% | 52% |
| 1 nM | 13.7 nM | 37 nM | 2.2 nM | 1.4 nM | 2 nM | CN[C@@H](C)C(=O)N[C@H](C(=O)N1CCc2c1cc(Cc1ccc(F)cc1F)c(=O)n2C)C(C)(C)C [Compound I-3-3] | 43% | 55% |
| 1 nM | 19.9 nM | 53 nM | 2.7 nM | 1.3 nM | 6 nM | CN[C@@H](C)C(=O)N[C@H](C(=O)N1CCc2[nH]c(=O)c(Cc3ccc(F)cc3)cc21)C1CCCCC1 [Compound I-4-1, (S)-N-((S)-1-cyclohexyl-2-(6-(4-fluorobenzyl)-5-oxo-2,3,4,5-tetrahydro-1H-pyrrolo[3,2-b]pyridine-1-yl)-2-oxyethyl)-2-(methylamino)propanamide] | 36% | 49% |
| 1 nM | 9.4 nM | 16 nM | 2.4 nM | 1.3 nM | 4 nM | CN[C@@H](C)C(=O)N[C@H](C(=O)N1CCc2[nH]c(=O)c(Cc3ccc(F)cc3F)cc21)C(C)(C)C [Compound I-4-2] | 41% | 54% |
